Results on 22 compounds are retold here after ChEMBL document CHEMBL1907987, “Human UDP-glucuronosyltransferases: metabolism, expression, and disease” (Annu Rev Pharmacol Toxicol, 2000).

Values joined by “and” are separate entries in the source; they are usually repeats but may differ in a detail not shown here. Identical values can stand only once.

One series deals with T1, UDP-glucuronosyltransferase 2B7 (Homo sapiens, UniProt P16662).
T1 sequence (P16662 whole entry): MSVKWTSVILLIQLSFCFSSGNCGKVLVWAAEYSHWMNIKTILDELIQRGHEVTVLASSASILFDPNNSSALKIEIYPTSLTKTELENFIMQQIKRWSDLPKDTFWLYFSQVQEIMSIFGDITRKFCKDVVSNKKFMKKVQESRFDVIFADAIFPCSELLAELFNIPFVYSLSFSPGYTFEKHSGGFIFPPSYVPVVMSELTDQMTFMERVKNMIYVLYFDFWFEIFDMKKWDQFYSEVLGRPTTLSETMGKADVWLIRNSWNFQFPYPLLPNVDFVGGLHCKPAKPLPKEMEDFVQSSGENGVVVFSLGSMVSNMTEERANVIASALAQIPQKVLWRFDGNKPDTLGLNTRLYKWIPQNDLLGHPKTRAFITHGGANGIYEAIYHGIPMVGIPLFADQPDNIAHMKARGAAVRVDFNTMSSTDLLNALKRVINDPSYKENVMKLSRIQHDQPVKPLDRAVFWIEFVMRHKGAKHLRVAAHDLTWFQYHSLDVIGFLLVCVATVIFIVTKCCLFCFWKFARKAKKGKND
As to the kind of experiment: Specific activity of expressed human recombinant UGT2B7H. Type of series: ADME. As to conditions: recombinant enzyme.
Consider `C=C1CC[C@@]2(O)[C@H]3Cc4ccc(O)c5c4[C@@]2(CCN3CC2CC2)[C@H]1O5`, for which the Activity was 380 pm/min/mg and 412 pm/min/mg.

Take `CN1CC[C@]23c4c5ccc(O)c4O[C@H]2[C@@H](O)C=C[C@H]3[C@H]1C5` (stereo in doubt; (-)) [MORPHINE]: the Activity is 2536 pm/min/mg and 2968 pm/min/mg.

As to `C[C@]12CC[C@@H](O)C[C@@H]1CC[C@@H]1[C@@H]2CC[C@]2(C)C(=O)CC[C@@H]12` (stereo in doubt; form 1) [ANDROSTERONE], the Activity is on record as 114 pm/min/mg.

With `CN1CC[C@]23c4c5ccc(O)c4O[C@H]2C(=O)CC[C@H]3[C@H]1C5` (stereo in doubt; form 1) [HYDROMORPHONE], the Activity is 617 pm/min/mg and 856 pm/min/mg.

On to `C[C@]12CC[C@H]3[C@@H](CCC4=CC(=O)CC[C@@]43C)[C@@H]1CC[C@@H]2O` (stereo in doubt; form 2) [TESTOSTERONE], for which the Activity is listed as 0 pm/min/mg.

For `CC1CC[C@H](C(C)C)[C@@H](O)C1` (stereo partly drawn) [(+)-MENTHOL], the Activity is 255 pm/min/mg and 191 pm/min/mg.

For `CC1(C)[C@H]2CC[C@]1(C)[C@H](O)C2` [(-)-BORNEOL], the Activity was 388 pm/min/mg and 227 pm/min/mg.

On to `CO[C@]12CC[C@@]3(C[C@@H]1[C@](C)(O)C(C)(C)C)[C@H]1Cc4ccc(O)c5c4[C@@]3(CCN1CC1CC1)[C@H]2O5` [BUPRENORPHINE], for which the Activity is 478 pm/min/mg and 280 pm/min/mg.

Regarding `COc1ccc2c3c1O[C@H]1[C@@H](O)C=C[C@H]4[C@@H](C2)N(C)CC[C@@]341` [CODEINE], the Activity was 80 pm/min/mg and 54 pm/min/mg.

On to `C[C@]12CC[C@H]3[C@@H](CCC4=CC(=O)CC[C@@]43C)[C@@H]1CC[C@H]2O` [EPITESTOSTERONE], for which the Activity was found to be 360 pm/min/mg.

For the compound `Oc1ccc2c3c1O[C@H]1[C@@H](O)CC[C@@]4(O)[C@@H](C2)N(CC2CCC2)CC[C@]314` [NALBUPHINE], the Activity is 758 pm/min/mg and 862 pm/min/mg.

For the compound `C=CCN1CC[C@]23c4c5ccc(O)c4O[C@H]2[C@@H](O)C=C[C@H]3[C@H]1C5` [NALORPHINE], the Activity was 1483 pm/min/mg and 1051 pm/min/mg.

Turning to `C=CCN1CC[C@]23c4c5ccc(O)c4O[C@H]2C(=O)CC[C@@]3(O)[C@H]1C5` [NALOXONE], the Activity was 2908 pm/min/mg and 3462 pm/min/mg.

Consider `O=C1CC[C@@]2(O)[C@H]3Cc4ccc(O)c5c4[C@@]2(CCN3CC2CC2)[C@H]1O5` [NALTREXONE], for which the Activity was 670 pm/min/mg and 662 pm/min/mg.

On to `Oc1ccc2c3c1O[C@H]1c4oc5ccccc5c4C[C@@]4(O)[C@@H](C2)N(CC2CC2)CC[C@]314` [NALTRIBEN], for which the Activity came to 0 pm/min/mg.

`Oc1ccc2c3c1O[C@H]1c4[nH]c5ccccc5c4C[C@@]4(O)[C@@H](C2)N(CC2CC2)CC[C@]314` [NALTRINDOLE]: the Activity was 349 pm/min/mg and 456 pm/min/mg.

For the compound `CN1CC[C@]23c4c5ccc(O)c4O[C@H]2C(=O)CC[C@@]3(O)[C@H]1C5` [OXYMORPHONE], the Activity was 2944 pm/min/mg and 3139 pm/min/mg.

For a further series, the target named is T1, UDP-glucuronosyltransferase 2B7. As to the kind of experiment: Specific activity of expressed human recombinant UGT2B7Y. The following applies: recombinant enzyme. Format: ADME.
Consider `C=C1CC[C@@]2(O)[C@H]3Cc4ccc(O)c5c4[C@@]2(CCN3CC2CC2)[C@H]1O5`, for which the Activity is listed as 625 pm/min/mg.

For the compound `CN1CC[C@]23c4c5ccc(O)c4O[C@H]2[C@@H](O)C=C[C@H]3[C@H]1C5` (stereo in doubt; (+)) [MORPHINE], the Activity came to 160 pm/min/mg.

With `CN1CC[C@]23c4c5ccc(O)c4O[C@H]2[C@@H](O)C=C[C@H]3[C@H]1C5` (stereo in doubt; (-)) [MORPHINE], the Activity worked out at 3719 pm/min/mg.

As for `C[C@]12CC[C@@H](O)C[C@@H]1CC[C@@H]1[C@@H]2CC[C@]2(C)C(=O)CC[C@@H]12` (stereo in doubt; form 1) [ANDROSTERONE], the Activity is 94 pm/min/mg.

With `CN1CC[C@]23c4c5ccc(O)c4O[C@H]2C(=O)CC[C@H]3[C@H]1C5` (stereo in doubt; form 1) [HYDROMORPHONE], the Activity turned out to be 530 pm/min/mg.

Turning to `CN1CC[C@]23c4c5ccc(O)c4O[C@H]2C(=O)CC[C@H]3[C@H]1C5` (stereo in doubt; form 2) [HYDROMORPHONE], the Activity was 1550 pm/min/mg.

`C[C@]12CC[C@H]3[C@@H](CCC4=CC(=O)CC[C@@]43C)[C@@H]1CC[C@@H]2O` (stereo in doubt; form 2) [TESTOSTERONE]: the Activity is 0 pm/min/mg.

`CC1CC[C@H](C(C)C)[C@@H](O)C1` (stereo partly drawn) [(+)-MENTHOL]: the Activity is 247 pm/min/mg and 147 pm/min/mg.

`CC1(C)[C@H]2CC[C@]1(C)[C@H](O)C2` [(-)-BORNEOL]: the Activity is 357 pm/min/mg and 174 pm/min/mg.

As to `C[C@]12CC[C@H]3[C@@H](CCC4=CC(=O)CC[C@@]43C)[C@@H]1CC[C@H]2O` [EPITESTOSTERONE], the Activity was 468 pm/min/mg and 240 pm/min/mg.

Turning to `CN1CC[C@]23CCCC[C@H]2[C@H]1Cc1ccc(O)cc13` [LEVORPHANOL], the Activity was 33 pm/min/mg and 25 pm/min/mg.

As for `Oc1ccc2c3c1O[C@H]1[C@@H](O)CC[C@@]4(O)[C@@H](C2)N(CC2CCC2)CC[C@]314` [NALBUPHINE], the Activity is 1100 pm/min/mg.

Take `Oc1ccc2c3c1O[C@H]1c4oc5ccccc5c4C[C@@]4(O)[C@@H](C2)N(CC2CC2)CC[C@]314` [NALTRIBEN]: the Activity is 150 pm/min/mg and 97 pm/min/mg.

In the case of `Oc1ccc2c3c1O[C@H]1c4[nH]c5ccccc5c4C[C@@]4(O)[C@@H](C2)N(CC2CC2)CC[C@]314` [NALTRINDOLE], the Activity is on record as 453 pm/min/mg.

On to `COc1ccc2c3c1O[C@H]1[C@@H](O)C=C[C@H]4[C@@H](C2)NCC[C@@]341` [NORCODEINE], for which the Activity was 29 pm/min/mg and 24 pm/min/mg.

As for `Oc1ccc2c3c1O[C@H]1[C@@H](O)C=C[C@H]4[C@@H](C2)NCC[C@@]341` [NORMORPHINE], the Activity is reported as 80 pm/min/mg.

With `CN1CC[C@]23c4c5ccc(O)c4O[C@H]2C(=O)CC[C@@]3(O)[C@H]1C5` [OXYMORPHONE], the Activity is listed as 2300 pm/min/mg.
